Results: PubChem BioAssay AID1996
Values after ≈ are worked out from the molar mass of the structure shown.

settings: buffer; pH 7.4; 200.0 µM

Compound	solubility kinetic [µg/mL]
C/C(=N\Nc1nc(C)cc(C)n1)c1ccc(N2CCOCC2)cc1	> 48.8
O=C(COC(=O)c1ccc(O)cc1)Nc1ccc2c(c1)OCO2	15.6 (≈ 49.5 µM)
Cc1cc(C)cc(C(=O)OCC(=O)NC(=O)NC2CCCC2)c1	4.1 (≈ 12.9 µM)
O=C(Cc1ccccc1)NCc1cccnc1	33.8 (≈ 149 µM)
O=C(Nc1ccc2c(c1)OCCO2)C(=O)c1c[nH]c2ccccc12	< 0.3
COc1ccc(C(=O)CCN2CCCC(C)C2)cc1.Cl (stereo not given)	> 44.7
Cc1ccc(C)c(C(=O)CSc2nc(C)cc(=O)[nH]2)c1	27.5 (≈ 95.4 µM)
Cc1ccc(F)c(NC(=O)CCOc2ccccc2C)c1	25.5 (≈ 88.7 µM)
O=Cc1ccc(-n2cc(C=O)c3ccccc32)cc1	2.4 (≈ 9.63 µM)
COc1ccc(NC(=O)Nc2cccc(Cl)c2Cl)c(OC)n1	< 0.2
CCOC(=O)C1CCN(C(=O)CCC2CCCC2)CC1	37.6 (≈ 134 µM)
Cc1cc(NC(=O)c2ccccc2C)no1	> 32.4
O=C(NCCc1cccs1)c1cccs1	> 35.6
C=CCC1(CC=C)CCCN1Cc1nc(COc2ccccc2)no1	8.3 (≈ 24.5 µM)
O=C1/C(=C/c2ccco2)SC(=S)N1CC1CCCO1 (stereo not given)	6.6 (≈ 22.3 µM)
O=C(CNC(=O)c1ccccc1F)c1ccc(Br)cc1	3.8 (≈ 11.3 µM)
CCCn1c(N)c(C(=O)CN2CCN(S(=O)(=O)c3cccc(Cl)c3)CC2)c(=O)[nH]c1=O	> 70.5
O=C(Nc1ccc(F)cc1F)c1cc(Cl)sc1Cl	< 0.7
CCCCN(C)C1CCN(C(=S)Nc2cccc(OC)c2)CC1	> 50.3
CCN(CC)c1ccc(C(=O)OCC(=O)Nc2ncccn2)cc1	2.4 (≈ 7.31 µM)
CCN(C(=O)Cc1c(C(=O)O)[nH]c2ccccc12)c1ccc(OC)cc1	> 52.9
O=C(O)c1ncsc1-c1ccccc1	29.1 (≈ 142 µM)
CCc1cc(=O)[nH]c(SCc2cccc3ccccc23)n1	2.8 (≈ 9.45 µM)
O=C(c1ccc(F)cc1)C(Cc1ccccc1)N1CCCCC1 (stereo not given)	13.1 (≈ 42.1 µM)

Compound	solubility kinetic [µg/mL]
COc1ccccc1NC(=O)C1CCCN(C(=O)NCc2ccccc2)C1 (stereo not given)	> 55.1
Cc1ccc(C(=O)Nc2nccs2)s1	9.6 (≈ 42.8 µM)
O=C(Nc1ccc(F)cc1)Nc1csc2ccccc12	0.5 (≈ 1.75 µM)
COc1ccc(NC2=NC(C)(C)CS2)cc1	31.4 (≈ 133 µM)
CN(C)c1ccc(C(=O)N2CCNC(=O)C2CC(=O)Nc2ccc(F)cc2)cc1 (stereo not given)	55.1 (≈ 138 µM)
Cc1cnc(NC(=O)C2CC(=O)N(c3ccc4c(c3)OCCO4)C2)s1 (stereo not given)	20.2 (≈ 56.2 µM)
CCOC(=O)C1=C(c2ccccc2)NC(=S)NC1c1ccc(Cl)cc1 (stereo not given)	5.3 (≈ 14.2 µM)
Cc1nc(COc2ccccc2Cl)sc1-c1ccnc(N)n1	1.2 (≈ 3.61 µM)
O=C(c1ccc(Cl)c(Cl)c1)N1CCN(c2ccccn2)CC1	40.4 (≈ 120 µM)
CC1CCCC(NC(=O)/C=C/c2c(F)cccc2Cl)C1C (stereo not given)	0.9 (≈ 2.9 µM)
Cc1ccccc1OCCN(C#N)c1nc(N(C)C)nc(N(C)C)n1	0.4 (≈ 1.17 µM)
C=CCNC(=S)N1CCc2[nH]c3ccccc3c2C1	5.5 (≈ 20.3 µM)
CSc1sc(C(=O)N2CCc3ccccc32)cc1S(=O)(=O)C(C)C	< 0.8
Cc1ccc(C)n1-c1ccc(C#N)cn1	26.6 (≈ 135 µM)
O=C(CSC1=NCCN1)Nc1ccccc1[N+](=O)[O-]	> 42
CSc1ncccc1C(=O)OCC(=O)Nc1cccc(S(=O)(=O)N2CCOCC2)c1	34.7 (≈ 76.9 µM)
CN1C(=O)c2ccc(NC(=O)c3c(C(=O)O)cccc3[N+](=O)[O-])cc2C1=O	> 55.4
O=C(NC(=S)Nc1ncccn1)c1ccccc1Br	23.5 (≈ 69.7 µM)
Cc1ccccc1OC(C)C(=O)NCCCN1CCOCC1 (stereo not given)	41.5 (≈ 135 µM)
CNC(=O)c1sc(-c2cccs2)nc1C	> 35.7
COC(=O)CC(N)c1ccc(Br)cc1.Cl (stereo not given)	> 44.2
CCOc1cc(N2CCOCC2)c(OCC)cc1NC(=O)c1cc(S(=O)(=O)N2CCOCC2)ccc1C	> 80
CCOC(=O)c1sc(=NC(=O)c2ccc(Cl)s2)n(C)c1C	0.5 (≈ 1.45 µM)
CC(C(=O)N1CCCC1)N1CCN(S(=O)(=O)c2ccccc2)CC1 (stereo not given)	47.1 (≈ 134 µM)

Compound	solubility kinetic [µg/mL]
CC(C)[C@H](NC(=O)NCc1ccc(F)cc1)C(=O)O	> 40.2
CCC(CC)C(=O)c1c[nH]c(C(=O)NC2CCCCCC2)c1	2 (≈ 6.57 µM)
Clc1cc2nc(-c3cccnc3Cl)[nH]c2cc1Cl	0.8 (≈ 2.68 µM)
Nc1nc(CCOc2ccc(F)cc2)cs1	34.3 (≈ 144 µM)
CCCc1nc(SCC(=O)NC2CCCC2)c2ccccc2n1	1.9 (≈ 5.77 µM)
Cc1ccccc1OCC(=O)OCC(=O)NC1CC1	> 39.5
Cc1nccc(-c2cccc(NC(=O)c3ccccc3Cl)c2)n1	35 (≈ 108 µM)
O=C1NC(=O)c2cc([N+](=O)[O-])cc3cccc1c23	6.3 (≈ 26 µM)
CCOC(=O)c1sc(=NC(=O)c2cccs2)n(C)c1C	< 0.3
O=c1[nH]c(CSc2nc3ccccc3s2)nc2ccccc12	1.5 (≈ 4.61 µM)
CC(C)c1nc(SCC(=O)Nc2nccs2)c2ccccc2n1	0.6 (≈ 1.74 µM)
O=S(=O)(Nc1cccc(S(=O)(=O)N2CCCC2)c1)c1ccccc1F	> 57.7
COCCSc1ccccc1C(=O)Nc1cc([N+](=O)[O-])ccc1OC	4.1 (≈ 11.3 µM)
O=[N+]([O-])c1ccc2nc(N3CCCC3)sc2c1	2.8 (≈ 11.2 µM)
O=C(Cc1cccs1)N1CCN=C1SCc1cccc(F)c1	12.6 (≈ 37.7 µM)
CC(=O)Nc1cccc(OCCCNC(=O)c2cccc3ccccc23)c1	46.8 (≈ 129 µM)
Cc1cc(C(=O)N2CCOCC2)c(C)o1	> 31.4
O=C1OC(NCc2cccnc2)(c2ccc(Cl)cc2)c2ccccc21 (stereo not given)	> 52.6
O=C(COC(=O)CN1C(=O)NC2(CCCCC2)C1=O)Nc1cc(F)ccc1F	> 59.3
O=C1CN(c2ccccc2)C(=O)N1	> 26.4
O=c1c(-c2ccco2)[n+]([O-])c2ccccc2n1OCc1c(F)cccc1F	3 (≈ 8.1 µM)
Cc1ccccc1OCCn1cc(C(=O)O)c2ccccc21	> 44.3
Cc1nc2ccc(NC(=S)N3CCCC3)cc2nc1C	41.7 (≈ 146 µM)
CC(C1CCN(Cc2nc(C3CC3)no2)CC1)N1CCOCC1 (stereo not given)	47.9 (≈ 149 µM)

Compound	solubility kinetic [µg/mL]
COc1ccc(CNC(=O)COC(=O)c2sccc2C)cc1OC	12.4 (≈ 35.5 µM)
CCOC(=O)c1cnc2c(F)ccc(F)c2c1Sc1ccccc1	5.7 (≈ 16.5 µM)
Fc1ccc(C2CCCN2Cc2nc(CC3CC3)no2)cc1 (stereo not given)	28.6 (≈ 94.9 µM)
O=C1OCc2ccc(NC(=O)c3c(F)cccc3Cl)cc21	2 (≈ 6.54 µM)
c1ccc2nc3c(nc2c1)CCCC3	> 27.6
CCCCNC(=O)c1cc2cc(OC)ccc2[nH]1	15.4 (≈ 62.5 µM)
CC1CCCCC1NC(=O)c1ccc(-n2cncn2)cc1 (stereo not given)	> 42.7
O=C(COC(=O)c1nsc(Cl)c1Cl)NC1CCCC1	> 48.5
O=C1CCC(C(=O)NCc2ccccc2)N1 (stereo not given)	30.8 (≈ 141 µM)
Cc1nc2ccsc2c(=O)n1-c1ccccc1Cl	> 41.5
CCOc1ccc(Nc2nc3ccccc3n2C)cc1	> 40.1
CCOC(=O)c1ccc(S(=O)(=O)Nc2cc(S(=O)(=O)Nc3ccc(OC)cc3)ccc2O)cc1	72.8 (≈ 144 µM)
COc1cccc(N2CN(C3CCCCC3)CNC2=S)c1	> 45.8
CSCCC(NC(=O)c1ccco1)c1nc2ccccc2[nH]1 (stereo not given)	> 47.3
O=C(/C=C/c1cccs1)c1ccc([N+](=O)[O-])cc1	1.9 (≈ 7.33 µM)
CN=C(N)NC(=O)Nc1c(C)cccc1C.Cl	> 38.5
CC(=O)c1cccc(Nc2cc(C)nc3ccccc23)c1.Cl	27.8
O=C(Cn1cnc2ccccc2c1=O)c1ccc(OC(F)F)cc1	9.2 (≈ 27.9 µM)
O=C(CNC(=O)[C@@H]1Cc2ccccc2CN1)NC1CCCC1	> 45.2
CN1CCC(N(C)S(=O)(=O)c2ccc(NC(=O)c3ccc(S(=O)(=O)N(C)C)cc3)cc2)CC1	> 74.2
O=C(COC(=O)c1ccc(Br)cc1)NCC1CCCO1 (stereo not given)	> 51.3
COc1ccccc1OCc1nc(-c2cccc([N+](=O)[O-])c2)no1	0.9 (≈ 2.75 µM)
COc1ccccc1C1CCN(C(=O)c2ccc(C(C)(C)C)cc2)CC1	3.1 (≈ 8.82 µM)
COc1ccccc1CC(=O)N1CCN(c2ccccc2)CC1	> 46.6

Compound	solubility kinetic [µg/mL]
O=C(CNCc1ccccc1Cl)Nc1cc(S(=O)(=O)N2CCOCC2)ccc1Cl	14.5 (≈ 31.6 µM)
O=C1NC2(CCCCC2)C(=O)N1CC(=O)N1CCc2ccccc21	10.6 (≈ 32.4 µM)
O=C(CSC(=O)c1ccccc1)Nc1ccccc1F	9.8 (≈ 33.9 µM)
COc1ccccc1NC(=O)N1CCN(C)CC1	30.8 (≈ 124 µM)
COc1ccc(NC(=O)Cc2cccs2)cc1S(=O)(=O)N1CCCCC1	44.4 (≈ 113 µM)
O=C(COC(=O)c1ccc(Cl)nc1)Nc1ccc2c(c1)CCC2	5.3 (≈ 16 µM)
COc1ccc2nc(-c3ccccc3)cc(C(=O)N3CCC3)c2c1	> 47.8
Cc1cccc(C)c1NC(=O)Cc1cccs1	> 36.8
Cc1ccccc1NC(=O)CSc1nc(O)cc(=O)n1C	35.6 (≈ 117 µM)
N#Cc1ccccc1OCC(=O)OCC(=O)c1c[nH]c2ccccc12	6.4 (≈ 19.1 µM)
O=C(Nc1cc2c3c(c1)CC(=O)N3CCC2)c1ccc(Br)cc1	10.3 (≈ 27.7 µM)
O=C1Cc2cc(S(=O)(=O)NCc3ccc(F)cc3)ccc2N1	16.7 (≈ 52.1 µM)
CS(=O)(=O)c1ccc(C(=O)NCC2(N3CCOCC3)CCCCC2)cc1	> 57.1
COc1cccc(N2C(=O)CC(Sc3nc(C)cc(C)n3)C2=O)c1 (stereo not given)	> 51.5
CC1CCCCN1C(=O)COC(=O)/C=C/c1ccc2ccccc2n1 (stereo not given)	25.1 (≈ 74.2 µM)
CN1C(=O)C2(OCCCO2)c2ccccc21	31.6 (≈ 144 µM)
O=C(C1CC1)N1c2ccccc2Sc2ccccc21	7.1 (≈ 26.6 µM)
CC(C)(C)OC(=O)N1CCCN(C(=O)Nc2ccccc2)CC1	46.3 (≈ 145 µM)
CC(C)(C)c1nc2ccc([N+](=O)[O-])cc2[nH]1	> 32.9
O=C(NC(=S)Nc1cccnc1)c1cccs1	10.4 (≈ 39.5 µM)
COCCCN=CC1=C(O)CC(c2ccccc2)CC1=O (stereo not given)	> 43.1
Cc1nc([N+](=O)[O-])cn1CC(=O)c1ccc(OC(F)(F)F)cc1	3.3 (≈ 10 µM)
O=C(CN1C(=O)c2ccc([N+](=O)[O-])cc2C1=O)NCc1ccc(C(=O)O)cc1	> 57.5
COc1ccc(-n2cc(-c3ccccc3)[nH]c2=S)c(OC)c1	3.3 (≈ 10.6 µM)
